From patent US20100204117A1, “CGRP AS A THERAPEUTIC AGENT” (priority 2008, published 2010)
No end group written: not given here.

Experiments:
HIV-1IIIB = assay: HIV-1 antiviral assay in CEM-SS cells (MTS readout); type: cell-based
spleen cells = assay: Th1/Th2 cytokine profiling assay (Ovalbumin-restimulated spleen cells, CBA kit); type: cell-based, Balb/c mice; details: 10 micrograms per ml; Ovalbumin restimulation; 72 hours
Procedure: The Balb/c mice (originated in 1923, it is a popular strain and is used in many different research disciplines. […] On day 50, spleens of the mice were harvested (3 weeks after last boost with Ovalbumin). […] Thereafter, additional Ovalbumin was added to the cells at 10 micrograms/ml for in vitro restimulation of the cells. 72 hours later, cell supernatants were harvested and assayed using the Becton Dickinson Mouse Th1/Th2 Cytokine CBA Kit. This kit can be used to measure Interleukin-2 (IL-2), Interleukin-4 (IL-4), Interleukin-5 (IL-5), Interferon-γ (IFN-γ), and Tumor Necrosis Factor-α (TNF-α) protein levels in a single sample. The kit performance has been optimized for analysis of physiologically relevant concentrations ([…] levels) of specific cytokine proteins in tissue culture supernatants and serum samples.

[1] = tested on: Primary Human endothelial cells (HUVEC); assay: Endothelial cell migration assay; type: cell-based; details: 10 micrograms per ml, 22 hours
HCMV strain AD169 = assay: HCMV plaque formation assay in MRC-5 cells
[2] = tested on: hepatitis B virus (HBV) ayw strain; assay: HBV assay in HepG2-2.2.15 cells (secreted HBV DNA, TaqMan PCR); type: cell-based; details: 10 micrograms per ml, six days
HUVEC = assay: Endothelial tube formation assay; type: cell-based, human; details: 10 micrograms per ml, 20 hours

CC(C)(C)NC(=O)[C@@H]1CN(Cc2cccnc2)CCN1C[C@@H](O)C[C@@H](Cc1ccccc1)C(=O)N[C@H]1c2ccccc2C[C@H]1O [indinavir]
antiviral activity of positive control compounds (HIV-1) (HIV-1IIIB): expected levels of antiviral activity

Ala-Cys-Asn-Thr-Ala-Thr-Cys-Val-Thr-His-Arg-Leu-Ala-Gly-Leu-Leu-Ser-Arg-Ser-Gly-Gly-Met-Val-Lys-Ser-Asn-Phe-Val-Pro-Thr-Asn-Val-Gly-Ser-Lys-Ala-Phe-NH2 (ACNTATCVTHRLAGLLSRSGGMVKSNFVPTNVGSKAF-NH2; ends and bridges not checked) [peptide 1, beta Calcitonin Gene-Related Peptide, commercially available known peptide]
IFNγ spleen cells; TH1 response (% of control) (spleen cells): 31.9 % of control
IL-2 spleen cells (% of control) (spleen cells): 104.8 % of control
IL-4 spleen cells; TH2 response (% of control) (spleen cells): 90.3 % of control
IL-5 spleen cells; TH2 response (% of control) (spleen cells): 40.1 % of control
TNF-a spleen cells; TH1 response (% of control) (spleen cells): 84.0 % of control
inhibition of the migration of human endothelial cells [1]: did not inhibit
inhibition of HCMV plaque formation as compared to the virus control experiment (HCMV strain AD169; 10 micrograms per ml, 7-10 days): did not show any inhibition
inhibition of HBV replication as compared to the virus control infection [2]: 19.3%
inhibition of the tube formation of human endothelial cells (HUVEC): 12%

Cc1cn([C@H]2C[C@H](N=[N+]=[N-])[C@@H](CO)O2)c(=O)[nH]c1=O [AZT]
antiviral activity of positive control compounds (HIV-1) (HIV-1IIIB): expected levels of antiviral activity

Nc1nc(O)c2ncn(COC(CO)CO)c2n1 [Ganciclovir, reference compound]
antiviral activity of positive control compound (HCMV) (HCMV strain AD169; positive control): expected levels of antiviral activity
